Experimental data reported in patent US20080188483A1, “Compounds and Compositions as Protein Kinase Inhibitors” (IRM LLC, priority 2006, published 2008).

Legend:
[1] = target: T1, purified FGFR3 (Upstate) (Homo sapiens, UniProt P22607); assay: FGFR3 enzymatic assay (HTRF); type: biochemical
T1 construct: purchased Upstate
Description: Kinase activity assay with purified FGFR3 (Upstate) is carried out in a final volume of 10 μL containing 0.25 μg/mL of enzyme in kinase buffer (30 mM Tris-HCl pH7.5, 15 mM MgCl2, 4.5 mM MnCl2, 15 μM Na3VO4 and 50 μg/mL BSA), and substrates (5 μg/mL biotin-poly-EY(Glu, Tyr) (CIS-US, Inc.) and 3 μM ATP). Two solutions are made: the first solution of 5 μl contains the FGFR3 enzyme in kinase buffer was first dispensed into 384-format ProxiPlate® (Perkin-Elmer) followed by adding 50 nL of compounds dissolved in DMSO, then 5 μl of second solution contains the substrate (poly-EY) and ATP in kinase buffer was added to each wells. The reactions are incubated at room temperature for one hour, stopped by adding 10 μL of HTRF detection mixture, which contains 30 mM Tris-HCl pH7.5, 0.5 M KF, 50 mM ETDA, 0.2 mg/mL BSA, 15 μg/mL streptavidin-XL665 (CIS-US, Inc.) and 150 ng/mL cryptate conjugated anti-phosphotyrosine antibody (CIS-US, Inc.). After one hour of room temperature incubation to allow for streptavidin-biotin interaction, time resolved florescent signals are read on Analyst GT (Molecular Devices Corp.). IC50 values are calculated by linear regression analysis of the percentage inhibition of each compound at 12 concentrations (1:3 dilution from 50 μM to 0.28 nM).

[2] = target: T2, FGFR3 (Ba/F3-TEL-FGFR3 cells) (Homo sapiens, UniProt P22607); assay: FGFR3 cellular assay (Ba/F3-TEL-FGFR3 proliferation); type: cell-based
T2 construct: expressed in transfected cells; host or cells: Ba/F3; the other entry of the earlier key: ETV6 (P41212, Transcription factor ETV6)
T2 sequence (P22607 472-761 limits assumed): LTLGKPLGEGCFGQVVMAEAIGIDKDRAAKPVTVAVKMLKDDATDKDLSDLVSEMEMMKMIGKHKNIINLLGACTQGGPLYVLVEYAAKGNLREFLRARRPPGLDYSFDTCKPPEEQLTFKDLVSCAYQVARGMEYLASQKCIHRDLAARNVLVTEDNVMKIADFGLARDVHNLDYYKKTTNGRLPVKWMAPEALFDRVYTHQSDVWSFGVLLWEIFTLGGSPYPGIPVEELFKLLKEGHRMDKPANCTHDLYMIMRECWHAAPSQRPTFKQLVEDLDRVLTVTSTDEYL
Description: Compounds of the invention are tested for their ability to inhibit transformed Ba/F3-TEL-FGFR3 cells proliferation, which is depended on FGFR3 cellular kinase activity. Ba/F3-TEL-FGFR3 are cultured up to 800,000 cells/mL in suspension, with RPMI 1640 supplemented with 10% fetal bovine serum as the culture medium. Cells are dispensed into 384-well format plate at 5000 cell/well in 50 μL culture medium. Compounds of the invention are dissolved and diluted in dimethylsulfoxide (DMSO). Twelve points 1:3 serial dilutions are made into DMSO to create concentrations gradient ranging typically from 10 mM to 0.05 μM. Cells are added with 50 nL of diluted compounds and incubated for 48 hours in cell culture incubator. AlamarBlue® (TREK Diagnostic Systems), which can be used to monitor the reducing environment created by proliferating cells, are added to cells at final concentration of 10%. After additional four hours of incubation in a 37° C. cell culture incubator, fluorescence signals from reduced AlamarBlue® (Excitation at 530 nm, Emission at 580 nm) are quantified on Analyst GT (Molecular Devices Corp.). IC50 values are calculated by linear regression analysis of the percentage inhibition of each compound at 12 concentrations.

T1 sequence (P22607 23-806): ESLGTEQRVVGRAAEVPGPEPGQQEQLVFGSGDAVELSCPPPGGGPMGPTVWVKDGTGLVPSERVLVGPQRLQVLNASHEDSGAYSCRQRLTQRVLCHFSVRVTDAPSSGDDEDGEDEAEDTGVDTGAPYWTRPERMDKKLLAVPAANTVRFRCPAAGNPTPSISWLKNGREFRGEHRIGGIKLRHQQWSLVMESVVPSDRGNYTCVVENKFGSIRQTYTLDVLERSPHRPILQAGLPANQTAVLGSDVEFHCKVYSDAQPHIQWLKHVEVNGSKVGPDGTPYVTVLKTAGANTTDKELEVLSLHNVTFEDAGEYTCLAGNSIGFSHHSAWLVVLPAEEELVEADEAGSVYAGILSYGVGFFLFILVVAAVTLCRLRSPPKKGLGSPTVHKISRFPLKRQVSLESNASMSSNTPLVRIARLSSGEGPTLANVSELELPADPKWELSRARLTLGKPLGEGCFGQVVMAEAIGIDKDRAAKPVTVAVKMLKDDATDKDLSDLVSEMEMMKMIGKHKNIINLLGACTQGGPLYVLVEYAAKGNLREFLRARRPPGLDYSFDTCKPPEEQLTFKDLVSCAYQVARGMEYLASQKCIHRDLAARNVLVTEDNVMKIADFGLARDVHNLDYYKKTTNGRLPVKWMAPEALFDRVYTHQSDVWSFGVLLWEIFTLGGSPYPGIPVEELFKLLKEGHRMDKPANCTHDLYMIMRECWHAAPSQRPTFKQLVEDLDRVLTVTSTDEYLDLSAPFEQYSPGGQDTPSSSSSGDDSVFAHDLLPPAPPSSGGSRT

CCN1CCN(Cc2ccc(NC(=O)c3cc(Nc4nccn4-c4ncnc5[nH]ccc45)cc(OC)c3)cc2C(F)(F)F)CC1 [Compound 9, N-[4-(4-ethyl-piperazin-1-ylmethyl)-3-trifluoromethyl-phenyl]-3-methoxy-5-[1-(7H-pyrrolo[2,3-d]pyrimidin-4-yl)-1H-imidazol-2-ylamino]-benzamide]
IC50 [1]: 4 nM | IC50 [2]: 40 nM
